Measured values: patent US12268727B2, “Bioactive polypeptides for improvements in plant protection, growth and productivity” (priority 2017, dated 2025)
Where “and” joins values, the source holds several entries; their conditions need not be identical. Identical values can stand only once. Entries after “also recorded” stand apart in the source; their conditions may differ.

How the values were obtained:
soybean [1] = experiment: Seed treatment of soybean, field yield trials; format: in vivo; settings: for Average Yield Bu/Ac / Average Change in Bu/Ac compared to Untreated Control: seed treatment on base ST; for Average Yield Bu/Ac: 1 variety, 1 location, four replicate plots
corn = experiment: Foliar application to corn in growth room, plant height (non-stress, heat and water deficit stress); settings: for increase in plant height vs surfactant alone / Δ Height Normalized as a percentage of control height: 1 μM; for increase in plant height vs surfactant alone: V2-V3, heat and water deficit stress; for Δ Height (cm) / Δ Height Normalized as a percentage of control height: corn, heat and water deficit stress; for Δ Height (cm): 1 μM with 0.1% surfactant; for Δ Height Normalized as a percentage of control height: surfactant control = 100%; for plant height as % of control: foliar 1 μM
Cercospora = Cercospora leaf blight of soybean, symptom rating in US Midwest fields; format: in vivo, Cercospora kikuchii; settings: for early symptom development (leaf area affected): 4 weeks, V3 foliar; for symptom ranking: 8 weeks; for Percent of Disease Area covering plant, 4 weeks Post Application / Disease Area, 8 weeks Post Application: foliar at V3; for Percent of Disease Area covering plant, 4 weeks Post Application: control 30%; for Disease Area, 8 weeks Post Application: control 50%
[2] = system: reactive oxygen species (ROS) production in soybean leaf tissue; experiment: ROS activity assay in soybean leaf tissue (luminol/horseradish peroxidase, RLU); format: cell-based; settings: for Fold increase over negative control: vs mock (water)
[3] = system: Candidatus Liberibacter asiaticus; settings: in vivo
squash = experiment: Foliar application to squash, yield; format: in vivo; settings: Crookneck squash; Bt.4Q7Flg22 2.0 Fl. oz/Ac, Gm.RHPP 3.2 Fl. oz/Ac
Source text: Formulation 2 (F2) consists of the D RI Bt.4Q7 Flg22 applied with 0.01% (wv) non-ionic surfactant. […] Yield comparisons were made between the plants treated with the foliar Bt.4Q7Flg22 F1 and F2 spray applications compared to the control (water) or non-treated squash plants. Squash plants were cultivated in sandy loam soil as follows. 2.5 cm holes were cut in 2.5 ft. (0.76 m) wide plastic covered mounds, two rows per mound, holes spaced 1.5 ft (0.46 m) apart within each row. Rows were staggered within the mound. Mounds were spaced 4 ft (1.2 m) apart. Three squash seeds were planted per hole and thinned to a single plant per hole 14 days after planting. Drip irrigation tubing was laid in the center of each mound, and plants were watered as necessary.
Squash plants were grown from seed in raised beds until bloom, and foliar treated in the same Florida (FL) location using two replicated trials or two separate harvests. Yield for the foliar Bt.4Q7Flg22 applied F1 and F2 treated plants is reported as the number of squash per plant, the weight (grams) per squash and the total squash yield (lbs/Ac) and represented as a percentage change as compared to non-treated control plants (Table 31).
Yield comparisons were made between the plants treated with the polypeptides compared to surfactant only control plants, with three replicates per treatment. […] Replicates with average yield per plant 50% above or 50% below the median yield for the trial were excluded as outliers.
Squash plants were cultivated in sandy loam soil as follows. 2.5 cm holes were cut in 0.76 meters wide plastic covered mounds, two rows per mound, holes spaced 0.46 meters apart within each row. Rows were staggered within the mound. Mounds were spaced 1.2 meters apart. Three squash seeds were planted per hole and thinned to a single plant per hole 14 days after planting. Drip irrigation tubing was laid in the center of each mound, and plants were watered as necessary.

[4] = system: reactive oxygen species (ROS) production in corn tissue; experiment: ROS activity assay in corn tissue (luminol/horseradish peroxidase, RLU); settings: for Change (X) in RLU of Flg22 Polypeptide Compared to Negative Control / Average RLU of Flg22 Polypeptide Treatment: corn petiole; for Average RLU of Flg22 Polypeptide Treatment: background subtracted; for Relative ROS activity normalized to Bt.4Q7Flg22: normalized to Bt.4Q7Flg22 at 100 nM
soybean [5] = experiment: Foliar application to soybean, field yield trials; format: in vivo; settings: for Average Bu/Ac Increase compared to Control Variety 1 and 2 / Average Total Yield Bu/Ac Variety 1 and 2 / Average Total Yield Bu/Ac Variety 2: foliar at R2, 7 US Midwest locations; for Average Total Yield Bu/Ac Variety 2: AG3536
[6] = polypeptide 0.25 μM (cellobiose 1 mM where combined)
[7] = polypeptide 1.0 μM (cellobiose 1 mM where combined)
[8] = Table 33, RLU relative to native Bt.4Q7Flg22 = 100
[9] = Table 35, single polypeptides and combinations, Bt.4Q7Flg22 = 100
[10] = soybean leaf tissue, Bt.4Q7Flg22 52.2 nM without surfactant
[11] = soybean leaves, Bt.4Q7Flg22 100 nM, No PROXEL Preservative Added

Bt.4Q7Flg22: Flg22 polypeptide (22 amino acids) from flagellin of Bacillus thuringiensis strain 4Q7 (DRLSSGKRINSASDDAAGLAIA; listed as Bacillus thuringiensis)
average yield increase over base seed treatment (soybean [1]; 1.0 μM, 0.14 Fl. oz per unit, Columbia Mo., 4 replicate plots): 5.11 Bu/Ac
Average Yield Bu/Ac (soybean [1]; [6]): 43.80 Bu/Ac
Average Yield Bu/Ac (soybean [1]; [7]): 46.22 Bu/Ac
Average Change in Bu/Ac compared to Untreated Control (soybean [1]; [6]): +2.69 Bu/Ac
Average Change in Bu/Ac compared to Untreated Control (soybean [1]; [7]): +5.11 Bu/Ac
win rate (soybean [1]; third study, 12 locations): 64%
yield benefit (soybean [1]; third study, 12 locations): 1.3 Bu/Ac
increase in plant height vs surfactant alone (corn; Trial 1): ~13%
increase in plant height vs surfactant alone (corn; Trial 3): > 33%
Δ Height (cm) (corn; Trial 1): +11.68 cm
Δ Height Normalized as a percentage of control height (corn; Trial 1): 112.9%
Δ Height (cm) (corn; Trial 2): +9.28 cm
Δ Height Normalized as a percentage of control height (corn; Trial 2): 99.5%
Δ Height (cm) (corn; Trial 3): +11.03 cm
Δ Height Normalized as a percentage of control height (corn; Trial 3): 133.2%
plant height as % of control (corn; heat/water stressed conditions): ~108%
plant height as % of control (corn; non-stressed conditions): 108% and 102%
early symptom development (leaf area affected) (Cercospora; 0.33 Fl. oz/Ac): 20%
early symptom development (leaf area affected) (Cercospora; 4.0 Fl. oz/Ac): approximately 5%
symptom ranking (Cercospora; 0.33 Fl. oz/Ac): comparable to the non-treated control plants
symptom ranking (Cercospora; 4.0 Fl. oz/Ac): considerably less apparent symptoms and damage
Percent of Disease Area covering plant, 4 weeks Post Application (Cercospora; 0.33 Fl. oz/Ac): 20%
Disease Area, 8 weeks Post Application (Cercospora; 0.33 Fl. oz/Ac): 50%
Percent of Disease Area covering plant, 4 weeks Post Application (Cercospora; 4.0 Fl. oz/Ac): 5%
Disease Area, 8 weeks Post Application (Cercospora; 4.0 Fl. oz/Ac): 35%
fold-increase in ROS production over mock-treated control ([2]; 52.2 nM Bt.4Q7Flg22, NIS90:10 0.25% or 0.5% v/v, Silwet-L77 0.025% or 0.1% v/v): 6.8 ×
fold increase in RLU over mock treatment ([2]; 100 nM Bt.4Q7Flg22, Proxel compatibility test): 17.0 ×
Avg. Activity (%) Soybean (297 R4) 100 nM polypeptide [2, 8]: 100%
Avg. Activity (%) Soybean (297 R4) 100 nM polypeptide [2, 9]: 100%
relative ROS activity ([2]; soy leaf tissue, 10 nM): 0.04 ×
Polypeptide Concentration (nM) for 5 × 10^4 total RLU production ([2]; soybean leaf discs, from best-fit regression, Table 72 data set): 31.4 nM
Average RLU values [2, 10]: 350503 RLU
Fold increase over negative control [2, 10]: (6.8X)
Average RLU values [2, 11]: 81887 RLU
Fold increase over negative control [2, 11]: (17.0X)
Ct values vs control trees [3]: slightly higher Ct counts; also recorded: significantly higher Ct values
Percentage Reduction in CLas titer Normalized to the Control, Trial 1 [3]: 37% and 33%
reduction in CLas titer levels [3]: 37% and 43%
change in fruit weight vs surfactant only control (squash): 4.4%
increase in weight of harvested squash fruit per plant (squash): 31.7 grams
Avg. Activity (%) Corn (5828 YX) 5 nM polypeptide [4, 8]: 100%
Avg. Activity (%) Corn (5828 YX) 5 nM polypeptide [4, 9]: 100%
Change (X) in RLU of Flg22 Polypeptide Compared to Negative Control ([4]; 1.0 nM): 0.8X
Average RLU of Flg22 Polypeptide Treatment ([4]; 1.0 nM): 6851 RLU
Change (X) in RLU of Flg22 Polypeptide Compared to Negative Control ([4]; 5 nM): 1.1X
Average RLU of Flg22 Polypeptide Treatment ([4]; 5 nM): 9389 RLU
Change (X) in RLU of Flg22 Polypeptide Compared to Negative Control ([4]; 25 nM): 1.4X
Average RLU of Flg22 Polypeptide Treatment ([4]; 25 nM): 12157 RLU
Average RLU ([4]; corn stalk tissue, 10 nM): 6032 RLU
relative ROS activity ([4]; corn stalk tissue, 10 nM): 0.2 ×
Relative ROS activity normalized to Bt.4Q7Flg22 ([4]; corn stalk tissue, 10 nM): (0.2X)
Average RLU ([4]; corn stalk tissue, 100 nM): 33037 RLU
Relative ROS activity normalized to Bt.4Q7Flg22 ([4]; corn stalk tissue, 100 nM): (1X*)
win rate (soybean [5]; R2 foliar 0.33 Fl. oz/Ac, 11 locations): 64%
yield advantage (soybean [5]; R2 foliar, 8 Fl. oz/Ac, 11 sites): 0.88 Bu/Ac
average yield change vs non-treated control (soybean [5]; R2 foliar, 11 locations, Flg22 polypeptides 0.33 Fl. oz/Ac, RHPP 4 Fl. oz/Ac): −0.1 Bu/Ac
Average Bu/Ac Increase compared to Control Variety 1 and 2 (soybean [5]; use rate 0.33 Fl. oz/Ac): +0.45 Bu/Ac
Average Total Yield Bu/Ac Variety 1 and 2 (soybean [5]; use rate 0.33 Fl. oz/Ac): 61.02 Bu/Ac
Average Bu/Ac Increase compared to Control Variety 1 and 2 (soybean [5]; use rate 4.0 Fl. oz/Ac): +0.33 Bu/Ac
Average Total Yield Bu/Ac Variety 1 and 2 (soybean [5]; use rate 4.0 Fl. oz/Ac): 60.90 Bu/Ac
Average Bu/Ac Increase compared to Control Variety 1 and 2 (soybean [5]; use rate 8.0 Fl. oz/Ac): +0.88 Bu/Ac
Average Total Yield Bu/Ac Variety 1 and 2 (soybean [5]; use rate 8.0 Fl. oz/Ac): 61.45 Bu/Ac
Average Total Yield Bu/Ac Variety 2 (soybean [5]; use rate 0.33 Fl. oz/Ac): 61.61 Bu/Ac
Average Total Yield Bu/Ac Variety 2 (soybean [5]; use rate 4.0 Fl. oz/Ac): 64.19 Bu/Ac
Average Total Yield Bu/Ac Variety 2 (soybean [5]; use rate 8.0 Fl. oz/Ac): 63.86 Bu/Ac
